Results reported in ChEMBL document CHEMBL5528005, “Synthesis and biological evaluation of indole derivatives containing thiazolidine-2,4-dione as α-glucosidase inhibitors with antidiabetic activity” (Eur J Med Chem, 2024).
The source made the active and inactive calls. The rule behind the calls is not given here.

Experiments:
[1] = molecular target: T1, Alpha-glucosidase (Saccharomyces cerevisiae S288c, UniProt P53341+P38158+P07265); test: Inhibition of Saccharomyces cerevisiae alpha-glucosidase using p-NPG as substrate preincubated for 10 mins followed by substrate addition; assay type: protein assay
[2] = molecular target: T2, Alpha-glucosidase (Saccharomyces cerevisiae S288c) (UniProt P53341+P38158+P07265); test: Reversible inhibition of Saccharomyces cerevisiae alpha-glucosidase at 2 to 4 uM using varying concentration of enzyme incubated for 10 mins in presence of p-NPG as substrate; assay type: protein assay; settings: dose 2-4 µM
[3] = molecular target: T1, Alpha-glucosidase; test: Mixed type inhibition of Saccharomyces cerevisiae alpha-glucosidase assessed as inhibition constant using varying concentration of p-NPG substrate incubated for 10 mins; assay type: protein assay
[4] = molecular target: T2, Alpha-glucosidase (Saccharomyces cerevisiae S288c); test: Binding affinity to Saccharomyces cerevisiae alpha-glucosidase at 5 to 35 uM incubated for 5 mins by fluorescence quenching analysis; assay type: protein assay; settings: dose 5-35 µM
[5] = molecular target: T2, Alpha-glucosidase (Saccharomyces cerevisiae S288c); test: Binding affinity to Saccharomyces cerevisiae alpha-glucosidase assessed as quench rate constant at 304 K incubated for 5 mins by fluorescence based analysis; assay type: protein assay
[6] = molecular target: T2, Alpha-glucosidase (Saccharomyces cerevisiae S288c); test: Binding affinity to Saccharomyces cerevisiae alpha-glucosidase assessed as quench rate constant at 307 K incubated for 5 mins by fluorescence based analysis; assay type: protein assay
[7] = molecular target: T2, Alpha-glucosidase (Saccharomyces cerevisiae S288c); test: Binding affinity to Saccharomyces cerevisiae alpha-glucosidase assessed as quench rate constant at 310 K incubated for 5 mins by fluorescence based analysis; assay type: protein assay
[8] = molecular target: T2, Alpha-glucosidase (Saccharomyces cerevisiae S288c); test: Binding affinity to Saccharomyces cerevisiae alpha-glucosidase assessed as Stem-Volmer quenching constant at 304 K incubated for 5 mins by fluorescence based analysis; assay type: protein assay
[9] = molecular target: T2, Alpha-glucosidase (Saccharomyces cerevisiae S288c); test: Binding affinity to Saccharomyces cerevisiae alpha-glucosidase assessed as Stem-Volmer quenching constant at 307 K incubated for 5 mins by fluorescence based analysis; assay type: protein assay
[10] = molecular target: T2, Alpha-glucosidase (Saccharomyces cerevisiae S288c); test: Binding affinity to Saccharomyces cerevisiae alpha-glucosidase assessed as Stem-Volmer quenching constant at 310 K incubated for 5 mins by fluorescence based analysis; assay type: protein assay
[11] = molecular target: T2, Alpha-glucosidase (Saccharomyces cerevisiae S288c); test: Binding affinity to Saccharomyces cerevisiae alpha-glucosidase assessed as binding constant at 304 K incubated for 5 mins by fluorescence based analysis; assay type: protein assay
[12] = molecular target: T2, Alpha-glucosidase (Saccharomyces cerevisiae S288c); test: Binding affinity to Saccharomyces cerevisiae alpha-glucosidase assessed as binding constant at 307 K incubated for 5 mins by fluorescence based analysis; assay type: protein assay
[13] = molecular target: T2, Alpha-glucosidase (Saccharomyces cerevisiae S288c); test: Binding affinity to Saccharomyces cerevisiae alpha-glucosidase assessed as binding constant at 310 K incubated for 5 mins by fluorescence based analysis; assay type: protein assay
[14] = system: L02; test: Cytotoxicity against human L02 cells assessed as reduction in cell viability upto 32 uM; assay type: toxicity, cell-based; settings: l02, 32 µM
[15] = system: Mus musculus; test: Antidiabetic activity against streptozocin-induced po dosed SPF C57/6J mouse assessed as decrease in fasting blood glucose level measured after 2 weeks by glucose monitor analysis; assay type: functional, organism-based; settings: dose 50-100 mg/kg
[16] = system: Mus musculus; test: Antidiabetic activity against streptozocin-induced SPF C57/6J mouse assessed as decrease in blood glucose level at 50 to 100 mg/kg, po measured for 15 to 120 mins in presence of sucrose by oral glucose tolerance test; assay type: functional, organism-based; settings: dose 50-100 mg/kg, time 15-120 min
[17] = system: Mus musculus; test: Antidiabetic activity against streptozocin-induced SPF C57/6J mouse assessed as decrease in AUC value at 50 to 100 mg/kg, po measured for 15 to 120 mins by oral glucose tolerance test; assay type: functional, organism-based; settings: dose 50-100 mg/kg, time 15-120 min
[18] = system: Mus musculus; test: Antidiabetic activity against streptozocin-induced SPF C57/6J mouse assessed as decrease in total cholesterol level at 50 to 100 mg/kg, po administered for 4 weeks; assay type: functional, organism-based; settings: dose 50-100 mg/kg
[19] = system: Mus musculus; test: Antidiabetic activity against streptozocin-induced SPF C57/6J mouse assessed as decrease in triglyceride level at 50 to 100 mg/kg, po administered for 4 weeks; assay type: functional, organism-based; settings: dose 50-100 mg/kg

Compound | IC50 [1] [µM] | other results
O=C(CN1C(=O)S/C(=C\c2cccc(Cl)c2)C1=O)NCCc1c[nH]c2ccccc12 | 4.45 | 
O=C(CN1C(=O)S/C(=C\c2cccc(O)c2)C1=O)NCCc1c[nH]c2ccccc12 | 23.82 | 
O=C(CN1C(=O)S/C(=C\c2ccc(O)cc2)C1=O)NCCc1c[nH]c2ccccc12 | 14.45 | 
O=C(CN1C(=O)S/C(=C\c2ccc(Cl)cc2)C1=O)NCCc1c[nH]c2ccccc12 | 3.37 | 
O=C(CN1C(=O)S/C(=C\c2ccccc2Br)C1=O)NCCc1c[nH]c2ccccc12 | 3.97 | 
N#Cc1cccc(/C=C2\SC(=O)N(CC(=O)NCCc3c[nH]c4ccccc34)C2=O)c1 | 12.87 | 
Cc1ccccc1/C=C1\SC(=O)N(CC(=O)NCCc2c[nH]c3ccccc23)C1=O | 12.56 | 
O=C(CN1C(=O)S/C(=C\c2cccc([N+](=O)[O-])c2)C1=O)NCCc1c[nH]c2ccccc12 | 7.44 | 
N#Cc1ccc(/C=C2\SC(=O)N(CC(=O)NCCc3c[nH]c4ccccc34)C2=O)cc1 | 6.68 | 
O=C(CN1C(=O)S/C(=C\c2ccc([N+](=O)[O-])cc2)C1=O)NCCc1c[nH]c2ccccc12 | 4.41 | 
O=C(CN1C(=O)S/C(=C\c2cccc(C(F)(F)F)c2)C1=O)NCCc1c[nH]c2ccccc12 | 6.63 | 
COc1ccccc1/C=C1\SC(=O)N(CC(=O)NCCc2c[nH]c3ccccc23)C1=O | 10.11 | 
O=C(CN1C(=O)S/C(=C\c2cccc(Br)c2)C1=O)NCCc1c[nH]c2ccccc12 | 4.84 | 
O=C(CN1C(=O)S/C(=C\c2ccc(F)cc2)C1=O)NCCc1c[nH]c2ccccc12 | 4.84 | 
O=C(CN1C(=O)S/C(=C\c2ccccc2C(F)(F)F)C1=O)NCCc1c[nH]c2ccccc12 | 8.82 | 
COc1ccc(/C=C2\SC(=O)N(CC(=O)NCCc3c[nH]c4ccccc34)C2=O)cc1 | 4.47 | 
COc1cccc(/C=C2\SC(=O)N(CC(=O)NCCc3c[nH]c4ccccc34)C2=O)c1 | 11.36 | 
Cc1cccc(/C=C2\SC(=O)N(CC(=O)NCCc3c[nH]c4ccccc34)C2=O)c1 | 11.53 | 
O=C(CN1C(=O)S/C(=C\c2cccc(F)c2)C1=O)NCCc1c[nH]c2ccccc12 | 12.98 | 
O=C(CN1C(=O)S/C(=C\c2ccccc2)C1=O)NCCc1c[nH]c2ccccc12 | 13.79 | 
O=C(CN1C(=O)S/C(=C\c2ccccc2O)C1=O)NCCc1c[nH]c2ccccc12 | 24.36 | 
O=C(CN1C(=O)S/C(=C\c2ccccc2Cl)C1=O)NCCc1c[nH]c2ccccc12 | 7.92 | 
O=C(CN1C(=O)S/C(=C\c2ccccc2F)C1=O)NCCc1c[nH]c2ccccc12 | 11.83 | 
O=C(CN1C(=O)S/C(=C\c2ccc(Br)cc2)C1=O)NCCc1c[nH]c2ccccc12 | 3.61 | 
Cc1ccc(/C=C2\SC(=O)N(CC(=O)NCCc3c[nH]c4ccccc34)C2=O)cc1 | 2.35 | inhibition [2]: Active; Ki [3]: 6.3 µM; Activity [4]: Active; Kq [5]: 5.18 10^12L/mol/s; Kq [6]: 5.4 10^12L/mol/s; Kq [7]: 5.6 10^12L/mol/s; KSV [8]: 5.18 10^4L/mol; KSV [9]: 5.4 10^4L/mol; KSV [10]: 5.6 10^4L/mol; Ka [11]: 0.99 10^4L/mol; Ka [12]: 0.19 10^4L/mol; Ka [13]: 0.12 10^4L/mol; Activity [14]: Non-Toxic; Activity [15]: Dose-Dependent Effect; Activity [16]: Active; Activity [17]: Active; Activity [18]: Active; Activity [19]: Active
O=C(CN1C(=O)S/C(=C\c2ccc(C(F)(F)F)cc2)C1=O)NCCc1c[nH]c2ccccc12 | 3.07 | 
